In general, IC50 refers to the concentration that gives 50% inhibition. One may read the IC95 as the concentration at which the effect reaches the 95% level. As usually defined, the bioavailability is the share of a dose that reaches the circulation, judged against a reference dose that is usually intravenous. In general, inhibition refers to how much of the control response was suppressed. A low value points to a response near the control.

Each structure is given as a SMILES string. A value given as a limit tells only on which side of the number the result lay.

Data set [1] addresses Protease (Human immunodeficiency virus 1, UniProt Q9YQ12). The experiment in a line: Inhibition of wild-type HIV1 protease expressed in Escherichia coli assessed as reduction in product formation preincubated for 30 mins followed by addition of Val-Ser-Gln-Asn-(beta-naphtyl)Ala-Pro-Ile-Val as substrate measured after 1 hr.
Data set [2] deals with Human immunodeficiency virus 1. The experiment in a line: Antiviral activity against HIV-1 infected in human MT4 cells assessed as inhibition of viral infection measured after 72 hrs. The class given is functional. As to conditions: Human immunodeficiency virus 1, MT4, 72 h.
A short description of data set [3]: Oral bioavailability in rat at 5 mg/kg. The format is ADME, organism-based. The following applies: in vivo.
Data set [4] in a line: Clearance in rat at 1 mg/kg, iv or 5 mg/kg, po. The format is ADME, organism-based. As to conditions: in vivo.
Data set [5] in a line: Oral bioavailability in rat at 10 mg/kg. The class given is ADME, organism-based. As to conditions: in vivo.
Data set [6] in a line: Clearance in rat at 2 mg/kg, iv or 10 mg/kg, po. The format is ADME, organism-based. As to conditions: in vivo.
For data set [7], the system named is Human immunodeficiency virus. The experiment in a line: Inhibition of HIV protease at 1 uM.

Protease, sequence (Q9YQ12 whole entry): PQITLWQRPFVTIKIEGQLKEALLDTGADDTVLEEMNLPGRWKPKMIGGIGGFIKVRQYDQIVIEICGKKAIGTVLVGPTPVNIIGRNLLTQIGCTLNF

For the compound `COC(=O)N[C@H](C(=O)N[C@@H](Cc1ccccc1)[C@@H](O)CN(Cc1ccc(-c2ccccn2)cc1)NC(=O)[C@@H](NC(=O)OC)C(C)(C)C)C(C)(C)C` [ATAZANAVIR], the IC50 in data set [1] is 0.04 nM. Also, the IC95 in data set [2] was 17 nM.

For `COC(=O)N[C@H](C(=O)Nc1ccccc1CC[C@@H]1CN[C@H](COC(=O)NCc2ccc(F)cc2)CO1)C(c1ccccc1)c1ccccc1`, the concentration for half-maximal inhibition (IC50) in data set [1] is 4.1 nM. The compound further registered a bioavailability in data set [3] of 47%. The compound further displayed a clearance in data set [4] of 49 mL/min/kg. Moreover, the IC95 in data set [2] came out at 170 nM.

In the case of `N[C@H](C(=O)Nc1cccc(F)c1CC[C@@H]1CN[C@H](COC(=O)NCC(F)(F)F)CO1)C(c1ccccc1)c1ccccc1`, in data set [1], the IC50 is 3.1 nM. In addition, the IC95 in data set [2] is 230 nM.

Take `N[C@H](C(=O)Nc1cncc(F)c1CC[C@@H]1CN[C@H](COC(=O)NCC(F)(F)F)CO1)[C@@H](c1ccc(Cl)cc1)c1cc(F)cc(F)c1`: the IC50 in data set [1] turned out to be 0.8 nM. Moreover, in data set [5], the bioavailability is 25%. In data set [6], this compound showed a clearance of 11 mL/min/kg. Moreover, the IC95 in data set [2] came to 49 nM.

With `N[C@H](C(=O)Nc1cncc(F)c1CC[C@@H]1CN[C@H](COC(=O)NCC(F)(F)F)CO1)C(c1ccccc1)c1ccccc1`, the IC50 in data set [1] was determined as 9.9 nM. The same compound registered a bioavailability in data set [5] of 59%. The same compound showed a clearance in data set [6] of 13 mL/min/kg. For the same compound, the IC95 in data set [2] was 150 nM.

Turning to `N[C@H](C(=O)Nc1cccc(F)c1CC[C@@H]1CN[C@H](COC(=O)NCC(F)(F)F)CO1)[C@@H](c1ccc(F)cc1)c1cccc(F)c1`, the IC50 in data set [1] came to 6.4 nM. Further, in data set [5], the bioavailability came to 30%. This compound had a clearance in data set [6] of 45 mL/min/kg. In addition, the IC95 in data set [2] was 75 nM.

Consider `COC(=O)N[C@H](C(=O)Nc1cnccc1CC[C@@H]1CN[C@H](COC(=O)NCC(F)(F)F)CO1)C(c1ccccc1)c1ccccc1`, for which the half-maximal inhibitory concentration (IC50) in data set [1] amounted to 14 nM. The compound also returned a bioavailability in data set [3] of under 5%. The clearance in data set [4] is 81 mL/min/kg. Further, the IC95 in data set [2] amounted to 330 nM.

`N[C@H](C(=O)Nc1cccc(F)c1CC[C@@H]1CN[C@H](COC(=O)NCC(F)(F)F)CO1)[C@@H](c1ccc(F)cc1)c1cc(F)cc(F)c1`: in data set [1], the half-inhibitory concentration (IC50) came to 8.2 nM. Moreover, the bioavailability in data set [5] came out at 14%. In data set [6], this compound registered a clearance of 22 mL/min/kg. The IC95 in data set [2] was 61 nM.

Consider `N[C@H](C(=O)Nc1cncc(F)c1CC[C@@H]1CN[C@H](COC(=O)NCC(F)(F)F)CO1)[C@@H](c1ccc(F)cc1)c1cccc(F)c1`, for which, in data set [1], the IC50 worked out at 2.4 nM. This compound came in with a bioavailability in data set [5] of 37%. The clearance in data set [6] amounted to 16 mL/min/kg. Moreover, the IC95 in data set [2] was determined as 66 nM.

Consider `COC(=O)N[C@H](C(=O)Nc1ccccc1CC[C@@H]1CN[C@H](COC(=O)NCc2cccc(Cl)n2)CO1)C(c1ccccc1)c1ccccc1`, for which the concentration for half-maximal inhibition (IC50) in data set [1] worked out at 3.4 nM. In addition, the bioavailability in data set [3] was 17%. Also, the clearance in data set [4] came out at 45 mL/min/kg. The IC95 in data set [2] turned out to be 150 nM.

With `COC(=O)N[C@H](C(=O)Nc1ccccc1CC[C@@H]1CN[C@H](COC(=O)N[C@H]2CCc3ccccc32)CO1)C(c1ccccc1)c1ccccc1`, the IC50 in data set [1] came to 3.5 nM. The compound further returned a bioavailability in data set [3] of under 5%. Also, the clearance in data set [4] was 87 mL/min/kg. Besides, the IC95 in data set [2] came to 63 nM.

The compound `COC(=O)N[C@H](C(=O)NCCCC1CNCCO1)C(c1ccccc1)c1ccccc1` (stereo partly drawn) displayed an inhibition in data set [7] of 11%.

Consider `COC(=O)N[C@H](C(=O)Nc1ccccc1CC[C@@H]1CN[C@H](COC(=O)NCc2ccccc2F)CO1)C(c1ccccc1)c1ccccc1`, for which the concentration for half-maximal inhibition (IC50) in data set [1] was determined as 3.6 nM. In data set [4], this compound gave a clearance of 61 mL/min/kg. Besides, in data set [2], the IC95 was 180 nM.

Consider `COC(=O)N[C@H](C(=O)Nc1cccc(F)c1CC[C@@H]1CN[C@H](COC(=O)NCC(F)(F)F)CO1)C(c1ccccc1)c1ccccc1`, for which the 50% inhibitory concentration (IC50) in data set [1] amounted to 12 nM. Moreover, the bioavailability in data set [3] amounted to 37%. The clearance in data set [4] was found to be 36 mL/min/kg. Also, in data set [2], the IC95 was 95 nM.

With `N[C@H](C(=O)Nc1cncc(F)c1CC[C@@H]1CN[C@H](COC(=O)NCC(F)(F)F)CO1)[C@@H](c1ccc(F)cc1)c1cc(F)cc(F)c1`, in data set [1], the half-inhibitory concentration (IC50) is 2.4 nM. Besides, the IC95 in data set [2] was found to be 130 nM.

With `COC(=O)N[C@H](C(=O)Nc1ccccc1CC[C@@H]1CN[C@H](COC(=O)NCC(F)(F)F)CO1)C(c1ccccc1)c1ccccc1`, the IC50 in data set [1] was 27 nM. The compound further returned a bioavailability in data set [3] of 19%. The clearance in data set [4] amounted to 36 mL/min/kg. Besides, in data set [2], the IC95 is 120 nM.

Take `COC(=O)N[C@H](C(=O)Nc1ccccc1CC[C@@H]1CN[C@H](COC(=O)N[C@@H]2CCc3ccccc32)CO1)C(c1ccccc1)c1ccccc1`: in data set [1], the IC50 came to 9.7 nM. The bioavailability in data set [3] was under 5%. The compound also returned a clearance in data set [4] of 110 mL/min/kg. Moreover, the IC95 in data set [2] worked out at 370 nM.

Take `COC(=O)N[C@H](C(=O)Nc1ccccc1CC[C@@H]1CN[C@H](COC(=O)NC(C)C)CO1)C(c1ccccc1)c1ccccc1`: the IC50 in data set [1] came to 37 nM. Also, the bioavailability in data set [3] came out at 33%. The clearance in data set [4] came out at 60 mL/min/kg. Further, the concentration for an effect of 95% (IC95) in data set [2] worked out at 190 nM.

Turning to `COC(=O)N[C@H](C(=O)Nc1ccccc1CC[C@@H]1CN[C@H](COC(=O)NCc2ccc(Cl)s2)CO1)C(c1ccccc1)c1ccccc1`, the IC50 in data set [1] came out at 2.4 nM. This compound also came in with a bioavailability in data set [3] of 13%. In data set [4], this compound registered a clearance of 33 mL/min/kg. The 95% effect concentration (IC95) in data set [2] turned out to be 170 nM.

Turning to `COC(=O)N[C@H](C(=O)Nc1ccccc1CC[C@@H]1CN[C@H](COC(=O)NCc2ccccc2)CO1)C(c1ccccc1)c1ccccc1`, in data set [1], the IC50 was found to be 6.1 nM. In addition, the bioavailability in data set [3] was under 5%. For the same compound, the clearance in data set [4] came to 27 mL/min/kg. Besides, in data set [2], the concentration for an effect of 95% (IC95) stood at 200 nM.

For `COC(=O)N[C@H](C(=O)Nc1cncc(F)c1CC[C@@H]1CN[C@H](COC(=O)NCC(F)(F)F)CO1)C(c1ccccc1)c1ccccc1`, in data set [1], the half-inhibitory concentration (IC50) is 3.5 nM. Besides, in data set [3], the bioavailability is 15%. Also, in data set [4], the clearance was 11 mL/min/kg. For the same compound, the 95% effect concentration (IC95) in data set [2] was found to be 94 nM.

For the compound `COC(=O)N[C@H](C(=O)Nc1ccccc1CC[C@@H]1CN[C@H](COC(N)=O)CO1)C(c1ccccc1)c1ccccc1`, in data set [1], the concentration for half-maximal inhibition (IC50) was determined as 20 nM. In data set [3], this compound displayed a bioavailability of 16%. The clearance in data set [4] came out at 30 mL/min/kg. The IC95 in data set [2] was 120 nM.

The record behind these values is ChEMBL document CHEMBL3826974, “Discovery of MK-8718, an HIV Protease Inhibitor Containing a Novel Morpholine Aspartate Binding Group” (ACS Med Chem Lett, 2016).
